Measured values published in paper PMC3676484 (Journal of medicinal chemistry, 2013).

Tests used:
[1] = tested on: GST-HIF-2α PAS-B* and ARNT PAS-B*-FLAG domains (HIF-2α–ARNT heterodimerization); assay: AlphaScreen luminescence proximity assay of HIF-2α–ARNT PAS-B heterodimerization; conditions: for IC50: read-out: AlphaScreen IC50, disruption of HIF-2α PAS-B*–ARNT PAS-B* heterodimer; for AlphaScreen activity (in words): disruption of HIF-2α–ARNT heterodimerization
[2] = target: HIF-2α PAS-B domain (Homo sapiens, UniProt Q99814); assay: Isothermal titration calorimetry; type: binding; conditions: for weakening of binding relative to compound 32: ITC data, compared with 32
[3] = Solubility observation; type: physicochemical

Sequence of HIF-2α PAS-B domain (Q99814 240-350 limits assumed): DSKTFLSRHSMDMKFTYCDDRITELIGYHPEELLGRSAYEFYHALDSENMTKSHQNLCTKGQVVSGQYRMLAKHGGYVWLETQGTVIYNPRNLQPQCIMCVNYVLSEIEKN

IC50 [1] [µM] | SMILES | also measured
> 30 | CC(=O)Nc1c(Nc2cc(F)cc(Cl)c2)ccc2nonc12 [Compound 48] | 
> 30 | O=[N+]([O-])c1c(Nc2ccc(Br)cc2)ccc2nonc12 [Compound 20] | 
> 30 | O=[N+]([O-])c1c(Nc2ccc(C(F)(F)F)cc2Cl)ccc2nonc12 [Compound 24] | 
> 30 | O=[N+]([O-])c1c(NCc2cc(F)ccc2C(F)(F)F)ccc2nonc12 [Compound 11] | 
> 30 | O=[N+]([O-])c1c(NCc2c(F)cccc2Cl)ccc2nonc12 [Compound 7] | 
> 30 | CNS(=O)(=O)c1c(Nc2cc(F)cc(Cl)c2)ccc2nonc12 [Compound 54] | AlphaScreen activity (in words) [1]: inactive as disruptors
> 30 | O=C1C=CC(=O)N1c1c(Nc2cc(F)cc(Cl)c2)ccc2nonc12 [Compound 50] | 
> 30 | O=[N+]([O-])c1c(Nc2ccc(Cl)cc2)ccc2nonc12 [Compound 18] | 
> 30 | O=C(CCl)Nc1c(Nc2cc(F)cc(Cl)c2)ccc2nonc12 [Compound 49] | 
 | O=[N+]([O-])c1c(Nc2cc(F)cc(F)c2)ccc2nonc12 [Compound 30] | weakening of binding relative to compound 32 [2]: 8 fold
 | Fc1cc(Cl)cc(Nc2ccc3nonc3c2)c1 [Compound 46] | solubility (in words) [3]: relatively insoluble; AlphaScreen activity (in words) [1]: weak activity
> 30 | COc1cccc(Nc2ccc3nonc3c2[N+](=O)[O-])c1 [Compound 16] | 
 | CN(C)S(=O)(=O)c1c(Nc2cc(F)cc(Cl)c2)ccc2nonc12 [Compound 55] | AlphaScreen activity (in words) [1]: inactive as disruptors
 | O=[N+]([O-])c1c(Nc2cccc(F)c2)ccc2nonc12 [Compound 23] | weakening of binding relative to compound 32 [2]: 25 fold
> 30 | O=[N+]([O-])c1c(Nc2ccc(F)cc2)ccc2nonc12 [Compound 17] | 
 | Nc1c(Nc2cc(F)cc(Cl)c2)ccc2nonc12 [Compound 47] | solubility (in words) [3]: relatively insoluble; AlphaScreen activity (in words) [1]: weak activity; worsening of binding and disruption relative to compound 32 ([2]; binding and disruption, NO2 replaced by NH2, compared with 32): 30–60 fold
 | O=[N+]([O-])c1c(Nc2cccc(Cl)c2)ccc2nonc12 [Compound 19] | weakening of binding relative to compound 32 [2]: two fold reduction in affinity
> 30 | Cc1ccc(CNc2ccc3nonc3c2[N+](=O)[O-])cc1 [Compound 4] | 
